# Columns and labels:
# chamomile = experiment: Test D preemergence; assay type: in vivo, Matricaria inodora; conditions: scale 0-100
# Text: (§1) Seeds of plant species selected from bluegrass (annual bluegrass, Poa annua), blackgrass (Alopecurus myosuroides), canarygrass (littleseed canarygrass, Phalaris minor), chickweed (common chickweed, Stellaria media), galium (catchweed bedstraw, Galium aparine), bromegrass, downy (downy bromegrass, Bromus tectorum), field poppy (Papaver rhoeas), field violet (Viola arvensis), green foxtail (Setaria viridis), deadnettle (henbit deadnettle, Lamium amplexicaule), Italian ryegrass (Lolium multiflorum), kochia (Kochia scoparia), lambsquarters (Chenopodium album), oilseed rape (Brassica napus), pigweed (Amaranthus retroflexus), chamomile (scentless chamomile, Matricaria inodora), Russian thistle (Salsola kali), speedwell (bird's-eye speedwell, Veronica persica), spring barley (Hordeum vulgare), spring wheat (Triticum aestivum), wild buckwheat (Polygonum convolvulus), wild mustard (Sinapis arvensis), wild oat (Avena fatua), wild radish (Raphanus raphanistrum), windgrass (Apera spica-venti), winter barley (Hordeum vulgare), and winter wheat (Triticum aestivum) were planted into a silt loam soil and treated preemergence with test chemicals formulated in a non-phytotoxic solvent mixture which included a surfactant.
# (§2) At the same time, these species were planted in pots containing Redi-Earth® planting medium (Scotts Company, 14111 Scottslawn Road, Marysville, Ohio 43041) comprising spaghnum peat moss, vermiculite, wetting agent and starter nutrients and treated with postemergence applications of the test chemicals formulated in the same manner. Plants ranged in height from 2 to 18 cm (1- to 4-leaf stage). Treated plants and controls were maintained in a controlled growth environment for 7 to 21 days after which time all species were compared to controls and visually evaluated. Plant response ratings, summarized in Table D, are based on a scale of 0 to 100 where 0 is no effect and 100 is complete control. A dash (-) response means no test result.
# field poppy [1] = experiment: Test D postemergence; assay type: in vivo, Papaver rhoeas
# Text: as §1, §2
# bromegrass, downy [2] = experiment: Test D postemergence; assay type: in vivo, Bromus tectorum
# Procedure, shortened: (§3)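 In a controlled growth environment, treated and control plants were held 7 to 21 days, then compared visually. Damage was scored 0–100, where 100 means complete control. Sprays contained surfactant in a non-phytotoxic solvent; post-applied plants were at the 1- to 4-leaf stage.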
# lambsquarters = experiment: Test D preemergence; assay type: in vivo, Chenopodium album
# Procedure, shortened: as §3
# spring wheat = experiment: Test D postemergence; assay type: in vivo, Triticum aestivum
# Text: as §1, §2
# winter wheat = experiment: Test D postemergence; assay type: in vivo, Triticum aestivum
# Text: as §1, §2
# field poppy [3] = experiment: Test D preemergence; assay type: in vivo, Papaver rhoeas
# Text: as §1, §2
# field violet = experiment: Test D preemergence; assay type: in vivo, Viola arvensis
# Procedure, shortened: as §3
# wild oat = experiment: Test D postemergence; assay type: in vivo, Avena fatua
# Procedure, shortened: as §3
# wild mustard = experiment: Test D postemergence; assay type: in vivo, Sinapis arvensis
# Procedure, shortened: as §3
# bromegrass, downy [4] = experiment: Test D preemergence; assay type: in vivo, Bromus tectorum
# Procedure, shortened: as §3
# [5] = 31 g ai/ha, scale 0 to 100 (0 no effect, 100 complete control)
# [6] = 62 g ai/ha, scale 0 to 100 (0 no effect, 100 complete control)
# [7] = 250 g ai/ha, scale 0 to 100 (0 no effect, 100 complete control)
# [8] = 16 g ai/ha, scale 0 (no effect) to 100 (complete control)
# [9] = 125 g ai/ha, scale 0 to 100 (0 no effect, 100 complete control)
structure (smiles),measurement,setting,value
Clc1cnc(Oc2ccccc2-n2cc(Cl)cn2)nc1 [Compound 3],"Plant response rating, Chamomile",chamomile; 31 g ai/ha,0
same,"Plant response rating, Chamomile",chamomile; 62 g ai/ha,0
same,"Plant response rating, Chamomile",chamomile; 125 g ai/ha,20
same,"Plant response rating, Chamomile",chamomile; 250 g ai/ha,40
same,"Plant response rating, Field Poppy","field poppy [1]; 16 g ai/ha, scale 0-100",10
same,"Plant response rating, Field Poppy",field poppy [1]; [5],0
same,"Plant response rating, Field Poppy",field poppy [1]; [6],0
same,"Plant response rating, Field Poppy",field poppy [1]; [7],0
same,"Plant response rating, Bromegrass, Downy","bromegrass, downy [2]; Postemergence, 62 g ai/ha, scale 0 to 100 (0 no effect, 100 complete control)",0
same,"Plant response rating, Bromegrass, Downy","bromegrass, downy [2]; Postemergence, 31 g ai/ha, scale 0 to 100 (0 no effect, 100 complete control)",0
same,"Plant response rating, Bromegrass, Downy","bromegrass, downy [2]; Postemergence, 125 g ai/ha, scale 0 to 100 (0 no effect, 100 complete control)",0
same,"Plant response rating, Bromegrass, Downy","bromegrass, downy [2]; Postemergence, 250 g ai/ha, scale 0 to 100 (0 no effect, 100 complete control)",0
same,"Plant response rating, Bromegrass, Downy","bromegrass, downy [2]; postemergence, 16 g ai/ha, scale 0 to 100, 0 no effect, 100 complete control",50
same,"Plant response rating, Lambsquarters",lambsquarters; [8],0
same,"Plant response rating, Lambsquarters","lambsquarters; 31 g ai/ha, scale 0-100",0
same,"Plant response rating, Lambsquarters","lambsquarters; 62 g ai/ha, scale 0-100",0
same,"Plant response rating, Lambsquarters","lambsquarters; 125 g ai/ha, scale 0-100",25
same,"Plant response rating, Lambsquarters","lambsquarters; 250 g ai/ha, scale 0-100",50
same,"Plant response rating, Wheat, Spring","spring wheat; 16 g ai/ha, scale 0-100",60
same,"Plant response rating, Wheat, Spring",spring wheat; [5],0
same,"Plant response rating, Wheat, Spring",spring wheat; [6],0
same,"Plant response rating, Wheat, Spring",spring wheat; [9],0
same,"Plant response rating, Wheat, Spring",spring wheat; [7],0
same,"Plant response rating, Wheat, Winter","winter wheat; 16 g ai/ha, scale 0-100",65
same,"Plant response rating, Wheat, Winter",winter wheat; [5],0
same,"Plant response rating, Wheat, Winter",winter wheat; [6],0
same,"Plant response rating, Wheat, Winter",winter wheat; [9],0
same,"Plant response rating, Wheat, Winter",winter wheat; [7],0
same,"Plant response rating, Field Poppy",field poppy [3]; [8],40
same,"Plant response rating, Field Poppy","field poppy [3]; 62 g ai/ha, scale 0-100",40
same,"Plant response rating, Field Poppy","field poppy [3]; 125 g ai/ha, scale 0-100",70
same,"Plant response rating, Field Poppy","field poppy [3]; 250 g ai/ha, scale 0-100",80
same,"Plant response rating, Field Violet",field violet; [8],40
same,"Plant response rating, Field Violet","field violet; 31 g ai/ha, scale 0-100",80
same,"Plant response rating, Field Violet","field violet; 62 g ai/ha, scale 0-100",80
same,"Plant response rating, Field Violet","field violet; 125 g ai/ha, scale 0-100",85
same,"Plant response rating, Field Violet","field violet; 250 g ai/ha, scale 0-100",85
same,"Plant response rating, Oat, Wild","wild oat; 16 g ai/ha, scale 0-100",70
same,"Plant response rating, Oat, Wild",wild oat; [5],0
same,"Plant response rating, Oat, Wild",wild oat; [6],0
same,"Plant response rating, Oat, Wild",wild oat; [9],0
same,"Plant response rating, Oat, Wild",wild oat; [7],0
same,"Plant response rating, Mustard, Wild","wild mustard; 16 g ai/ha, scale 0-100",75
same,"Plant response rating, Mustard, Wild",wild mustard; [5],20
same,"Plant response rating, Mustard, Wild",wild mustard; [6],35
same,"Plant response rating, Mustard, Wild",wild mustard; [9],35
same,"Plant response rating, Mustard, Wild",wild mustard; [7],85
same,"Plant response rating, Bromegrass, Downy","bromegrass, downy [4]; [8]",0
same,"Plant response rating, Bromegrass, Downy","bromegrass, downy [4]; 31 g ai/ha, scale 0-100",0
same,"Plant response rating, Bromegrass, Downy","bromegrass, downy [4]; 62 g ai/ha, scale 0-100",0
same,"Plant response rating, Bromegrass, Downy","bromegrass, downy [4]; 125 g ai/ha, scale 0-100",0
same,"Plant response rating, Bromegrass, Downy","bromegrass, downy [4]; 250 g ai/ha, scale 0-100",0

# Source: patent publication US9695155B2, “Herbicidal substituted pyrimidinyloxy benzene compounds” (E. I. DU PONT DE NEMOURS AND COMPANY, priority 2013, dated 2017)
